Literature values, collected in EP0668291A2, “Mammalian augmenter of liver regenerating and variants thereof” (Toyo Boseki Kabushiki Kaisha, priority 1994, dated 1995).

System: hepatocytes
Details: earlier work

For N[C@@H](Cc1cc(I)c(Oc2ccc(O)c(I)c2)c(I)c1)C(=O)O [thyroxin T3, tri-iodothyronine], the hepatotrophic effect is given as “weakly hepatotrophic”.
